Columns and labels:
Format in all cases: in vivo
[1] = system: Leptosphaeria nodorum; test: Glume Blotch of Wheat (LEPTNO), protectant spray test on wheat seedlings; details: wheat (cultivar Monon), sprayed to run off at 100 ppm, inoculated after 24 hours
[2] = system: Erysiphe graminis; test: Powdery Mildew of Wheat (ERYSGT), protectant spray test on wheat seedlings; details: wheat (cultivar Monon), sprayed to run off at 100 ppm, inoculated after 24 hours
[3] = system: Phytophthora infestans; details: tomatoes (cultivar Rutgers), sprayed to run off at 100 ppm, inoculated after 24 hours
[4] = system: Puccinia recondita; test: Brown Rust (PUCCRT), protectant spray test on wheat seedlings; details: wheat (cultivar Monon), sprayed to run off at 100 ppm, inoculated after 24 hours

| SMILES | LEPTNO control of plant disease [1] | ERYSGT control of plant disease [2] | PHYTIN control of plant disease [3] | PUCCRT control of plant disease [4] |
| --- | --- | --- | --- | --- |
| CNC(=O)C(=NOC)c1ccccc1COc1ncc(C(C)OCc2ccc(C)cc2)cc1Cl (racemic) [Example 44] | ++ (++ = 75-100% control of plant disease) | ++ (++ = 75-100% control of plant disease) | ++ (++ = 75-100% control of plant disease) | ++ (++ = 75-100% control of plant disease) |
| CNC(=O)C(=NOC)c1ccccc1COc1ncc(C(OC(=O)N(C)C)c2ccccc2)cc1Cl (racemic) [Example 45] | ++ (++ = 75-100% control of plant disease) | ++ (++ = 75-100% control of plant disease) | ++ (++ = 75-100% control of plant disease) | ++ (++ = 75-100% control of plant disease) |
| CNC(=O)C(=NOC)c1ccccc1COc1ncc(C(OC(C)=O)c2ccc(F)cc2)cc1Cl (racemic) [Example 46] | ++ (++ = 75-100% control of plant disease) | ++ (++ = 75-100% control of plant disease) | − (− = 0-24% control of plant disease) | − (− = 0-24% control of plant disease) |
| CCCC(=O)OC(c1ccccc1)c1cnc(OCc2ccccc2C(=NOC)C(=O)NC)c(Cl)c1 (racemic) [Example 47] | ++ (++ = 75-100% control of plant disease) | ++ (++ = 75-100% control of plant disease) | ++ (++ = 75-100% control of plant disease) | ++ (++ = 75-100% control of plant disease) |
| CCC(=O)OC(c1ccc(F)cc1)c1cnc(OCc2ccccc2C(=NOC)C(=O)NC)c(Cl)c1 (racemic) [Example 48] | ++ (++ = 75-100% control of plant disease) | ++ (++ = 75-100% control of plant disease) | ++ (++ = 75-100% control of plant disease) | ++ (++ = 75-100% control of plant disease) |
| CNC(=O)C(=NOC)c1ccccc1COc1ncc(C(O)c2ccc3ccccc3c2)cc1Cl (racemic) [Example 49] | ++ (++ = 75-100% control of plant disease) | ++ (++ = 75-100% control of plant disease) | ++ (++ = 75-100% control of plant disease) | ++ (++ = 75-100% control of plant disease) |
| CCCC(=O)OC(c1ccc(F)cc1)c1cnc(OCc2ccccc2C(=NOC)C(=O)NC)c(Cl)c1 (racemic) [Example 50] | ++ (++ = 75-100% control of plant disease) | ++ (++ = 75-100% control of plant disease) | ++ (++ = 75-100% control of plant disease) | ++ (++ = 75-100% control of plant disease) |
| CNC(=O)C(=NOC)c1ccccc1COc1ncc(C(O)c2cccs2)cc1Cl (racemic) [Example 51] | ++ (++ = 75-100% control of plant disease) | ++ (++ = 75-100% control of plant disease) | ++ (++ = 75-100% control of plant disease) | ++ (++ = 75-100% control of plant disease) |
| CNC(=O)C(=NOC)c1ccccc1COc1ncc(C(C)OCc2ccccc2)cc1Cl (racemic) [Example 52] | ++ (++ = 75-100% control of plant disease) | ++ (++ = 75-100% control of plant disease) | − (− = 0-24% control of plant disease) | ++ (++ = 75-100% control of plant disease) |
| CNC(=O)C(=NOC)c1ccccc1COc1ncc(C(C)(OC(C)=O)c2ccccc2)cc1Cl (racemic) [Example 53] | ++ (++ = 75-100% control of plant disease) | ++ (++ = 75-100% control of plant disease) | ++ (++ = 75-100% control of plant disease) | ++ (++ = 75-100% control of plant disease) |
| CNC(=O)C(=NOC)c1ccccc1COc1ncc(C(OC=O)c2ccccc2)cc1Cl (racemic) [Example 54] | ++ (++ = 75-100% control of plant disease) | ++ (++ = 75-100% control of plant disease) | ++ (++ = 75-100% control of plant disease) | ++ (++ = 75-100% control of plant disease) |
| CNC(=O)C(=NOC)c1ccccc1COc1ncc(C(OC(=O)OC(C)C)c2ccccc2)cc1Cl (racemic) [Example 56] | ++ (++ = 75-100% control of plant disease) | ++ (++ = 75-100% control of plant disease) | ++ (++ = 75-100% control of plant disease) | ++ (++ = 75-100% control of plant disease) |
| CNC(=O)C(=NOC)c1ccccc1COc1ncc(C(O)c2ccc3c(c2)OCO3)cc1Cl (racemic) [Example 58] | ++ (++ = 75-100% control of plant disease) | ++ (++ = 75-100% control of plant disease) | ++ (++ = 75-100% control of plant disease) | ++ (++ = 75-100% control of plant disease) |
| CNC(=O)C(=NOC)c1ccccc1COc1ncc(C(O)c2ccccc2C)cc1Cl (racemic) [Example 59] | ++ (++ = 75-100% control of plant disease) | ++ (++ = 75-100% control of plant disease) | ++ (++ = 75-100% control of plant disease) | ++ (++ = 75-100% control of plant disease) |
| CNC(=O)C(=NOC)c1ccccc1COc1ncc(C(OC(C)=O)c2ccc3c(c2)OCO3)cc1Cl (racemic) [Example 60] | ++ (++ = 75-100% control of plant disease) | ++ (++ = 75-100% control of plant disease) | ++ (++ = 75-100% control of plant disease) | ++ (++ = 75-100% control of plant disease) |
| CNC(=O)C(=NOC)c1ccccc1COc1ncc(C(OC(C)=O)c2ccccc2C)cc1Cl (racemic) [Example 61] | ++ (++ = 75-100% control of plant disease) | ++ (++ = 75-100% control of plant disease) | ++ (++ = 75-100% control of plant disease) | ++ (++ = 75-100% control of plant disease) |
| CNC(=O)C(=NOC)c1ccccc1COc1ncc(C(C)OCc2cccc(OC)c2)cc1Cl (racemic) [Example 62] | ++ (++ = 75-100% control of plant disease) | ++ (++ = 75-100% control of plant disease) | − (− = 0-24% control of plant disease) | ++ (++ = 75-100% control of plant disease) |
| CCOCC(=O)OC(c1ccccc1)c1cnc(OCc2ccccc2C(=NOC)C(=O)NC)c(Cl)c1 (racemic) [Example 63] | ++ (++ = 75-100% control of plant disease) | ++ (++ = 75-100% control of plant disease) | ++ (++ = 75-100% control of plant disease) | ++ (++ = 75-100% control of plant disease) |

From patent US6436963B1 (priority 1998, dated 2002)
